A value given as a limit tells only on which side of the number the result lay.

The target in this test is T1, Kv1.3 potassium channel (Homo sapiens, UniProt P22001).
T1 construct: expressed in transfected cells
T1 sequence (P22001 whole entry): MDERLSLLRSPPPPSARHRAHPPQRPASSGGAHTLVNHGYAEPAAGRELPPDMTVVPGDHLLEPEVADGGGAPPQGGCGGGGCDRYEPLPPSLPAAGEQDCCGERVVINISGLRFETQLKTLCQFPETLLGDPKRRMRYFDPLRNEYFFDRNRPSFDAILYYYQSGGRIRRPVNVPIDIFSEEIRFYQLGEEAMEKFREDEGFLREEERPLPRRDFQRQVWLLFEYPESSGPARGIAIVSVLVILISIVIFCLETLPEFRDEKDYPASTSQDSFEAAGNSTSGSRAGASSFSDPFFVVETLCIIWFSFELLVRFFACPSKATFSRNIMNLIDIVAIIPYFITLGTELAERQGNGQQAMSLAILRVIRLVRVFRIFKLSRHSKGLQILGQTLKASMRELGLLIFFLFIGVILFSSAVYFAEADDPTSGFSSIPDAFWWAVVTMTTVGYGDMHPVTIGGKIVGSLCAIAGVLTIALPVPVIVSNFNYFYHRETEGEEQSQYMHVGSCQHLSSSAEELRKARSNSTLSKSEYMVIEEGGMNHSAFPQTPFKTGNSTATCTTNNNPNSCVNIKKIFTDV
Description: Kv1.3 potassium channel blocker activity, automated whole-cell patch clamp (Patchliner) in CHO-K1 cells stably expressing Kv1.3. In kind it is cell-based. The note with it: 30 nM-100 μM. The protocol: This assay is used to evaluate the disclosed compounds' activities as Kv1.3 potassium channel blockers.
CHO-K1 cells stably expressing Kv1.3 were grown in DMEM containing 10% heat-inactivated FBS, 1 mM sodium pyruvate, 2 mM L-glutamine, and G418 (500 μg/ml). Cells were grown in culture flasks at 37° C. in a 5% CO2-humidified incubator.
The cells were bathed in an extracellular solution containing 140 mM NaCl, 4 mM KCl, 2 mM CaCl2), 1 mM MgCl2, 5 mM glucose, 10 mM HEPES; pH adjusted to 7.4 with NaOH; 295-305 mOsm. The internal solution contained 50 mM KCl, 10 mM NaCl, 60 mM KF, 20 mM EGTA, 10 mM HEPES; pH adjusted to 7.2 with KOH; 285 mOsm. All compounds were dissolved in DMSO at 30 mM. Compound stock solutions were freshly diluted with external solution to concentrations of 30 nM, 100 nM, 300 nM, 1 μM, 3 μM, 10 μM, 30 μM and 100 μM. The highest content of DMSO (0.3%) was present in 100 μM.
The currents were evoked by applying 100 ms depolarizing pulses from −90 mV (holding potential) to +40 mV were applied with 0.1 Hz frequency. Control (compound-free) and compound pulse trains for each compound concentration applied contained 20 pulses. 10-second breaks were used between pulse trains (see Table A below).
Whole-cell current recordings and compound application were enabled by means of an automated patch clamp platform Patchliner (Nanion Technologies GmbH). EPC 10 patch clamp amplifier (HEKA Elektronik Dr. Schulze GmbH) along with Patchmaster software (HEKA Elektronik Dr. Schulze GmbH) was used for data acquisition. Data were sampled at 10 kHz without filtering. Passive leak currents were subtracted online using a P/4 procedure (HEKA Elektronik Dr. Schulze GmbH). Increasing compound concentrations were applied consecutively to the same cell without washouts in between. Total compound incubation time before the next pulse train was not longer than 10 seconds. Peak current inhibition was observed during compound equilibration.
AUC and peak values were obtained with Patchmaster (HEKA Elektronik Dr. Schulze GmbH). To determine IC50, the last single pulse in the pulse train corresponding to a given compound concentration was used. Obtained AUC and peak values in the presence of compound were normalized to control values in the absence of compound. Using Origin (OridinLab), IC50 was derived from data fit to Hill equation: Icompound/Icontrol=(100−A)/(1+([compound]/IC50)nH)+A, where IC50 value is the concentration at which current inhibition is half-maximal, [compound] is the applied compound concentration, A is the fraction of current that is not blocked and nH is the Hill coefficient.
For orientation: In patch-clamp work, channel activity is measured electrically.
In general, IC50 refers to the concentration that inhibits the measured activity by half. The low end stands for greater potency, the high end for weaker potency. `O=C([C@H]1CC[C@H](CO)C1)N1CC[C@]2(C1)C(=O)Nc1cc(Cl)c(Cl)cc12` (relative stereo) [Compound 99, (3S)-5,6-dichloro-1′-[(1R,3R)-rel-3-(hydroxymethyl)cyclopentanecarbonyl]-1H-spiro[indole-3,3′-pyrrolidin]-2-one isomer 1]: the IC50 was under 3 µM.

On to `C[C@H](O)CC(=O)N1CC[C@]2(C1)C(=O)Nc1cc(Cl)c(Cl)cc12` [Compound 88, (S)-5,6-dichloro-1′-((S)-3-hydroxybutanoyl)spiro[indoline-3,3′-pyrrolidin]-2-one], for which the IC50 is under 3 µM. As to `O=C(C[C@@H](O)CO)N1CC[C@]2(C1)C(=O)Nc1cc(Cl)c(Cl)cc12` [Compound 77, (S)-5,6-dichloro-1′-((R)-3,4-dihydroxybutanoyl)spiro[indoline-3,3′-pyrrolidin]-2-one], the IC50 is under 10 µM.

`O=C1Nc2cc(Cl)c(Cl)cc2[C@]12CCN(C(=O)[C@H]1C[C@@H](O)C1)C2` [Compound 25, (S)-5,6-dichloro-1′-((1s,3R)-3-hydroxycyclobutane-1-carbonyl)spiro[indoline-3,3′-pyrrolidin]-2-one] came in with an IC50 of under 3 µM. Then `O=C([C@@H]1C[C@@H]1CO)N1CC[C@]2(C1)C(=O)Nc1cc(Cl)c(Cl)cc12` (relative stereo) [Compound 151, (S)-5,6-dichloro-1′-(1R,2S)-rel-2-(hydroxymethyl)cyclopropane-1-carbonyl)spiro[indoline-3,3′-pyrrolidin]-2-one], with under 1 µM; and `O=C([C@H]1CC[C@@H](O)[C@H](O)C1)N1CC[C@]2(C1)C(=O)Nc1cc(Cl)c(Cl)cc12` (single isomer, unassigned; isomer 1) [Compound 107], with under 1 µM; and `O=C1Nc2cc(Cl)c(Cl)cc2[C@]12CCN(C(=O)[C@]13CNCC1C3)C2` (single isomer, unassigned; isomer 1) [Compound 32], with under 1 µM. On to `O=C(N1CC[C@]2(C1)C(=O)Nc1cc(Cl)c(Cl)cc12)C12CNCC1C2` (single isomer, unassigned; isomer 2) [Compound 33], for which the IC50 is under 1 µM. Then `O=C1Nc2cc(Cl)c(Cl)cc2[C@]12CCN(c1c[nH]c(=O)cn1)C2` [Compound 145, (S)-5,6-dichloro-1′-(5-oxo-4,5-dihydropyrazin-2-yl)spiro[indoline-3,3′-pyrrolidin]-2-one], with under 1 µM; and `O=C([C@@H]1[C@@H]2CN[C@H]1C2)N1CC[C@]2(C1)C(=O)Nc1cc(Cl)c(Cl)cc12` (single isomer, unassigned; isomer 2) [Compound 58], with under 1 µM; and `C[C@@H]1C[C@]2(CN1C(=O)CO)C(=O)Nc1cc(Cl)c(Cl)cc12` (single isomer, unassigned; isomer 3) [Compound 125, 5,6-dichloro-1′-(2-hydroxyacetyl)-5′-methyl-1H-spiro[indole-3,3′-pyrrolidin]-2-one isomer 3], with under 1 µM.

On to `O=C([C@H]1CCCNC1)N1CC[C@]2(C1)C(=O)Nc1cc(Cl)c(Cl)cc12` [Compound 16, (S)-5,6-dichloro-1′-((S)-piperidine-3-carbonyl)spiro[indoline-3,3′-pyrrolidin]-2-one], for which the IC50 was under 1 µM. In turn, `CC(C)(O)CC(=O)N1CC[C@]2(C1)C(=O)Nc1cc(Cl)c(Cl)cc12` [Compound 87, (S)-5,6-dichloro-1′-(3-hydroxy-3-methylbutanoyl)spiro[indoline-3,3′-pyrrolidin]-2-one] had an IC50 of under 10 µM. As for `Nc1[nH]ncc1C(=O)N1CC[C@]2(C1)C(=O)Nc1cc(Cl)c(Cl)cc12` [Compound 70, (S)-1′-(5-amino-1H-pyrazole-4-carbonyl)-5,6-dichlorospiro[indoline-3,3′-pyrrolidin]-2-one], the IC50 is under 3 µM. In turn, `O=C(N1CC[C@]2(C1)C(=O)Nc1cc(Cl)c(Cl)cc12)C1(O)CCNC1` (single isomer, unassigned; isomer 1) [Compound 30] returned an IC50 of under 1 µM. Then `O=C([C@H]1CCCN1)N1CC[C@]2(C1)C(=O)Nc1cc(Cl)c(Cl)cc12` [Compound 23, (S)-1′-(D-prolyl)-5,6-dichlorospiro[indoline-3,3′-pyrrolidin]-2-one], with under 3 µM. Consider `CN(C)CC(=O)N1CCC2(C1)C(=O)Nc1cc(Cl)c(Cl)cc12` (stereo not shown) [Compound 7, 5,6-dichloro-1′-(dimethylglycyl)spiro[indoline-3,3′-pyrrolidin]-2-one], for which the IC50 is under 3 µM. In the case of `Nc1ccnc(N2CC[C@]3(C2)C(=O)Nc2cc(Cl)c(Cl)cc23)n1` [Compound 139, (S)-1′-(4-aminopyrimidin-2-yl)-5,6-dichlorospiro[indoline-3,3′-pyrrolidin]-2-one] it was under 1 µM; in that of `COC[C@@H]1C[C@@H](C(=O)N2CC[C@]3(C2)C(=O)Nc2cc(Cl)c(Cl)cc23)CN1` [Compound 110, (3S)-5,6-dichloro-1′-[(3R,5S)-5-(methoxymethyl)pyrrolidine-3-carbonyl]-1H-spiro[indole-3,3′-pyrrolidin]-2-one], under 1 µM. Compound `COCC(=O)N1CC[C@]2(C1)C(=O)Nc1cc(Cl)c(Cl)cc12` [Compound 147, (S)-5,6-dichloro-1′-(2-methoxyacetyl)spiro[indoline-3,3′-pyrrolidin]-2-one] gave an IC50 of under 1 µM. In the case of `Cc1c(Cl)cc2c(c1F)NC(=O)[C@@]21CCN(C(=O)CO)C1` [Compound 127, (S)-5-chloro-7-fluoro-1′-(2-hydroxyacetyl)-6-methylspiro[indoline-3,3′-pyrrolidin]-2-one] it was under 1 µM; in that of `C[C@@H]1CN(C(=O)CO)CC12C(=O)Nc1cc(Cl)c(Cl)cc12` (single isomer, unassigned; diastereoisomer 1) [Compound 130, 5,6-dichloro-1′-(2-hydroxyacetyl)-4′-methylspiro[indoline-3,3′-pyrrolidin]-2-one diastereoisomer 1], under 30 µM; in that of `O=C1Nc2cc(Cl)c(Cl)cc2[C@]12CCN(c1cn[nH]n1)C2` [Compound 146, (S)-5,6-dichloro-1′-(1H-1,2,3-triazol-4-yl)spiro[indoline-3,3′-pyrrolidin]-2-one], under 3 µM. In turn, `O=C(Cc1cn[nH]c1)N1CC[C@]2(C1)C(=O)Nc1cc(Cl)c(Cl)cc12` [Compound 72, (S)-1′-(2-(1H-pyrazol-4-yl)acetyl)-5,6-dichlorospiro[indoline-3,3′-pyrrolidin]-2-one] displayed an IC50 of under 3 µM. In turn, `Cc1cc(Cl)cc2c1NC(=O)[C@@]21CCN(C(=O)CO)C1` [Compound 140, (S)-5-chloro-1′-(2-hydroxyacetyl)-7-methylspiro[indoline-3,3′-pyrrolidin]-2-one] yielded an IC50 of under 1 µM. In the case of `O=C(CO)N1CC[C@@]2(C1)C(=O)Nc1c2cc(Cl)c(Cl)c1Cl` [Compound 122, (3R)-5,6,7-trichloro-1′-(2-hydroxyacetyl)-1H-spiro[indole-3,3′-pyrrolidin]-2-one], the IC50 was under 3 µM. `Cn1cc(C(=O)N2CC[C@]3(C2)C(=O)Nc2cc(Cl)c(Cl)cc23)ccc1=O` [Compound 83, (S)-5,6-dichloro-1′-(1-methyl-6-oxo-1,6-dihydropyridine-3-carbonyl)spiro[indoline-3,3′-pyrrolidin]-2-one]: the IC50 is under 10 µM. `O=C([C@@H]1CCOC1)N1CC[C@]2(C1)C(=O)Nc1cc(Cl)c(Cl)cc12` [Compound 24, (S)-5,6-dichloro-1′-((R)-tetrahydrofuran-3-carbonyl)Spiro[indoline-3,3′-pyrrolidin]-2-one] registered an IC50 of under 3 µM. Then `O=C(c1ccc(CO)nc1)N1CC[C@]2(C1)C(=O)Nc1cc(Cl)c(Cl)cc12` [Compound 68, (S)-5,6-dichloro-1′-(6-(hydroxymethyl)nicotinoyl)spiro[indoline-3,3′-pyrrolidin]-2-one], with under 3 µM; and `O=C([C@@H]1CC[C@](O)(CO)C1)N1CC[C@]2(C1)C(=O)Nc1cc(Cl)c(Cl)cc12` (single isomer, unassigned; isomer 2) [Compound 98], with under 3 µM; and `C[C@H]1C[C@]2(CN1C(=O)CO)C(=O)Nc1cc(Cl)c(Cl)cc12` (single isomer, unassigned; isomer 1) [Compound 123, 5,6-dichloro-1′-(2-hydroxyacetyl)-5′-methyl-1H-spiro[indole-3,3′-pyrrolidin]-2-one isomer 1], with under 30 µM.

The values are drawn from US20240391926A1, “SPIROINDOLINONE COMPOUNDS AS Kv1.3 POTASSIUM SHAKER CHANNEL BLOCKERS” (D.E. Shaw Research, LLC, priority 2021, published 2024).
